Laboratory results: article PMC11188305, “Reproductive and fetal toxicity studies of histamine H3 receptor antagonist DL76 used in mice to prevent maximal electroshock-induced seizure” (Frontiers in Pharmacology, 2024)
Read-outs that look alike come from different tables or passages of the source.

Tests used:
[1] = target: T1, hN neuronal α4β2 (Homo sapiens, UniProt P17787+P43681); assay: hN neuronal α4β2 binding, [3H]cystine in SH-SY5Y cells (Eurofins Cerep)
T1 construct: host or cells: SH-SY5Y cells

[2] = test system: MES-induced seizures in mice; assay: Maximal electroshock (MES)-induced seizure, duration of tonic hind limb extension (THLE); assay type: in vivo, C57BL/6J mice; details: for protection compared with reference drug VPA: DL76 60 mg/kg i.p. vs VPA 300 mg/kg; for mean difference in THLE: DL76 60 mg/kg vs saline-, DL76 7.5, 15, 30 mg/kg groups, p < 0.05
Source text: As previously described and with a slight modification in the intensity applied, seizures were elicited in mice with a 50-Hz alternating current of 120 mA intensity ([Kaminski et al., 2015]; [Song et al., 2020]; [Xiao et al., 2021]; [Hua et al., 2023]). The current was applied through ear electrodes for 0.2 s. Protection against the spread of MES-induced convulsion was defined as the abolition of the tonic hind limb extension (THLE) component of the seizure ([Kaminski et al., 2015]; [Song et al., 2020]; [Xiao et al., 2021]; [Hua et al., 2023]). The animals were divided into the following experimental groups, with eight mice in each: the control group injected with saline, the positive control group injected with 300 mg/kg of VPA (the minimal dose of VPA that protected animals against the spread of MES-induced convulsions without mortality in mice) ([Sadek et al., 2015]; [Bastaki et al., 2018]), and four groups that were administered the test compound DL76 at doses of 7.5 mg/kg, 15 mg/kg, 30 mg/kg, or 60 mg/kg. All drugs were administered 30–45 min before the MES challenge. In a further group of eight mice, the most promising and protective dose of DL76 (60 mg/kg, i.p.) was co-injected with RAM (10 mg/kg, i.p.), 30 min apart and 15 min prior to the MES test. Protection against the spread of MES-induced convulsion was defined as the abolition of the THLE component of the convulsion ([Sadek et al., 2015]; [Alachkar et al., 2018]; [Bastaki et al., 2018]).
(§1) Statistical analyses employed SPSS 26.0 (IBM Middle East, Dubai, UAE). Data were presented as means ± SEM. […] Fetal abnormality data were presented as counts and percentages. Fisher’s exact test compared the percentages of abnormalities between the control group (saline) and the different dose groups. All tests were two-tailed, and significance was set at p < 0.05.

[3] = test system: C57/B6 mouse embryos; assay: Skeletal malformations (double staining of fetuses); assay type: in vivo, C57BL/6J mice
Source text: After isolating fetuses from viscera and skin, they underwent a fat-removal process by immersion in acetone for 1–3 days. The resulting transparent specimens underwent a sequence of glycerin solutions (50% and 80%) before being finally stored in 100% glycerin for observation of malformations using a stereo dissecting microscope ([McLeod, 1980]; [Sterz and Lehmann, 1985]; [Abdulrazzaq et al., 1997]; [Bass et al., 2020]). Following this, specimens were processed and stained with Alizarin Red-S and Alcian blue ([McLeod, 1980]; [Sterz and Lehmann, 1985]; [Abdulrazzaq et al., 1997]; [Bass et al., 2020]) to identify bone and cartilage deformities.
as §1

[4] = target: hH4R; design: method as in Lazewska et al. (2020) and Canale et al. (2021); details: Sf9 cells; [3H]histamine; ref Lazewska et al. (2020) and Canale et al. (2021); cited from earlier work
[5] = test system: H3R; design: method as in Lazewska et al. (2006); details: after p.o. administration to mice; ref Lazewska et al. (2006); cited from earlier work
[6] = design: method as in Szafarz et al., 2015; details: ref Szafarz et al., 2015, cited from earlier work
[7] = test system: several cell lines; design: method as in Canale et al., 2021; details: ref Canale et al., 2021; cited from earlier work
[8] = design: method as in Canale et al., 2021; details: ref Canale et al., 2021; cited from earlier work

T1 sequence (P43681 29-627 limits assumed): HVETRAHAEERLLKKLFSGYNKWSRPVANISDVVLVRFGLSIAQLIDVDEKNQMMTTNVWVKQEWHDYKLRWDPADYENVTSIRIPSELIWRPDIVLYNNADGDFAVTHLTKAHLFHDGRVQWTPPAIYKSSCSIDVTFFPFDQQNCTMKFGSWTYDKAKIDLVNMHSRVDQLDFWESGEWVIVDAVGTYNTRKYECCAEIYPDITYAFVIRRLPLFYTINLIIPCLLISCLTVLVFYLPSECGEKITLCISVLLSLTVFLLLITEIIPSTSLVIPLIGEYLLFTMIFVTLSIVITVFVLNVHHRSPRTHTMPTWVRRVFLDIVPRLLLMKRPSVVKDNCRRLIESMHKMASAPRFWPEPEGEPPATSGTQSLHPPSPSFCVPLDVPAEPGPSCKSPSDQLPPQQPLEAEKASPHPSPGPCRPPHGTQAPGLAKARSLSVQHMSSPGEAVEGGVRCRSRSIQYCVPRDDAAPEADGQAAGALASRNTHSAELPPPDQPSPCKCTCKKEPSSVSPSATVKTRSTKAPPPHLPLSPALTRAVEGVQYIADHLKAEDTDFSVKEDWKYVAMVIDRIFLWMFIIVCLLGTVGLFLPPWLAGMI
T1 sequence (P17787 26-502): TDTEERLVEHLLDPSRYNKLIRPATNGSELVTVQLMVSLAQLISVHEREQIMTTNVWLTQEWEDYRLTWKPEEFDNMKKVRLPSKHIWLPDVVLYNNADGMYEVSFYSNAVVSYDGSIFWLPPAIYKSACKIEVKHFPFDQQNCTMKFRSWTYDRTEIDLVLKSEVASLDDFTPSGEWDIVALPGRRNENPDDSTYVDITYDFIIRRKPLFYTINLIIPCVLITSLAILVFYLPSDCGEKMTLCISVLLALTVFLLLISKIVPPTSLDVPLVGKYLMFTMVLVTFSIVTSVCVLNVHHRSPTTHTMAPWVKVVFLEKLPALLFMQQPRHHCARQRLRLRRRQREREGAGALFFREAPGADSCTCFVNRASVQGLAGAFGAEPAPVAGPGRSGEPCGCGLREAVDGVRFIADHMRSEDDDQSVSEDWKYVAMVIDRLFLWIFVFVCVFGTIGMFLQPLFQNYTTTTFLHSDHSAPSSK

CC(C)(C)c1ccc(OCCCN2CCCCC2)cc1 [DL76, 1-(3-(4-tert-butyl-phenoxy)propyl) piperidine]
inhibition at 1 µM [1]: 3%
difference of protective effects between male and female mice ([2]; DL76 7.5, 15, 30 and 60 mg/kg i.p., p = 0.70, 0.685, 0.151, 0.398): no significant differences
THLE compared with reference drug VPA (300 mg/kg, i.p.) ([2]; both sexes of adult mice, DL76 30 mg/kg and 60 mg/kg): no significant differences
THLE values compared with VPA ([2]; both sexes of adult mice, lower doses of DL76 7.5 mg/kg and 15 mg/kg i.p.): significant difference
mean difference, saline + saline vs. DL76 + RAM ([2]; female adult mice, DL76 60 mg/kg + RAM 10 mg/kg i.p., p = 0.17): 1.33
protection after co-administration of RAM ([2]; female adult mice, DL76 60 mg/kg i.p. + RAM 10 mg/kg i.p. 15 min before MES): abrogated
protection compared with reference drug VPA ([2]; female adult mice, p = 0.72): comparable
mean difference in THLE ([2]; female adult mice, 2nd of three printed values): 10.63 s
mean difference in THLE ([2]; female adult mice, 3rd of three printed values): 3.13 s
protection against MES-induced convulsions ([2]; female adult mice, DL76 7.5–60 mg/kg i.p.): significantly protected
protection against MES-induced seizures ([2]; female and male mice, 7.5, 15, 30 and 60 mg/kg i.p., acute): significant and dose-dependent protection
mean difference of THLE, saline vs. DL76+RAM ([2]; male adult mice, DL76 60 mg/kg + RAM 10 mg/kg i.p., p = 0.094): 2.5 s
protection after co-injection with H3R agonist RAM ([2]; male adult mice, DL76 60 mg/kg i.p. + RAM 10 mg/kg i.p. 15 min before MES): reversed
mean difference of THLE ([2]; male adult mice, DL76 60 mg/kg i.p. vs DL76 (7.5 mg/kg)-treated group): 7.25 s
mean difference of THLE ([2]; male adult mice, DL76 60 mg/kg i.p. vs DL76 (15 mg/kg)-treated group): 8.88 s
mean difference of THLE ([2]; male adult mice, DL76 60 mg/kg i.p. vs DL76 (30 mg/kg)-treated group): 10.75 s
protection compared with reference drug VPA ([2]; male adult mice, p = 1.000): comparable
protective effect on MES-induced convulsions vs saline ([2]; male adult mice, all doses 7.5, 15, 30, 60 mg/kg i.p., all p <0.0001): substantial protective effects
femur length ([3]; 7.5 mg/kg and 60 mg/kg groups): significantly decreased
tibia and fibula lengths vs controls ([3]; 7.5 mg/kg, 30 mg/kg and 60 mg/kg groups): significantly decreased
mean crown-to-rump length vs control groups ([3]; 7.5 mg/kg-, 30 mg/kg- and 60 mg/kg-treated groups): decreased significantly
humerus and ulna lengths ([3]; 30 mg/kg and 60 mg/kg groups): reduced
radius length ([3]; 30 mg/kg group only): significant decrease
femur length ([3]; 30 mg/kg group, p = 0.06): non-significant decrease
incidence of lumbar ribs vs saline-treated control ([3]; DL76-treated group): not significantly different
fifth sternebrium, absence or occurrence of hypoplasia, vs control ([3]; DL76-treated groups): no significant difference
skull or facial bones ([3]; all groups): No significant differences
vertebrae: number of centra or number of unossified/hypoplastic bodies ([3]; all the DL-76-treated groups): no differences
crown–rump length and lengths of the long bones of the extremities ([3]; higher doses of 30 mg/kg, 60 mg/kg and 15 mg/kg × 3): seemed to be affected
Ki [4]: 66 µM
ED50, in vivo H3R antagonist potency [5]: 2.8 ± 0.4 mg/kg
AUC0→∞ ([6]; dose 3 mg/kg): 298 ng◦h/mL
C0 ([6]; dose 3 mg/kg): 564 ng/mL
AUC0→∞ ([6]; dose 6 mg/kg): 685 ng◦h/mL
C0 ([6]; dose 6 mg/kg): 653 ng/mL
concentrations in cortex, hippocampus and striatum higher than in whole brain tissues ([6]; experimental animals): 44%
in vitro toxicity [7]: without inducing in vitro toxicity
antiparkinsonian effects [8]: antiparkinsonian effects
